What all share (assay type): biochemical
One assay concerns Aβ 1-40 amyloid fibrils. The experiment in a line: Modified Congo red-Aβ spectrophotometric assay: disaggregation of pre-formed Aβ 1-40 fibrils (3 days incubation). Conditions: Aβ:compound weight ratio 2:1; fibrillized Aβ 1-40 incubated with compound 3 days at 37°C in TBS pH 7.0; Δ absorbance at 540 nm; triplicate. On the procedure:
In this study, a Congo red-Aβ spectrophotometric assay (Klunk et al., Anal. Biochem. 266:66-76, 1999) was modified to determine the effectiveness of polyhydroxylated aromatic compounds on the disaggregation of pre-formed Aβ 1-40 amyloid fibrils. For this assay, 1 mg of Aβ 1-40 (Bachem) was incubated for 4 days in distilled water at 37°C to spontaneously produce amyloid fibrils. 25pM of fibrillized Aβ 1-40 was then incubated in triplicate with various test compounds for 3 days at 37°C in Tris-buffered saline (TBS)(100 mM Tris; 50 mM NaCl; pH 7.0, with 0.02% sodium azide), at an Aβ:compound weight ratio of 2:1. Following incubation, 50µl of 360 µM Congo red (Sigma) in distilled water was then added to 250 µl of each incubation mixture, giving a final Aβ:Congo red molar ratio of 1:3. After 10 minutes, the absorbance at 405 nm (reference wavelength to account for the absorbance of Congo red alone at 540 nm) and 540 nm (sample absorbance where "sample" refers to Aβ alone, test compound alone, or Aβ plus test compound, all in the presence of Congo red) was determined using a Biorad Model 550 BLISA Plate Reader (Biorad, Hercules, CA, USA). The absorbance at wavelength 405 nm was automatically subtracted by the ELISA plate reader from the absorbance at wavelength 540 nm (difference is referred to as Δ absorbance)(see Klunk et al. cited above). Therefore, the Δ absorbance reading at 540 nm was proportional to the amount of aggregated Aβ left in solution (Klunk et al.).
For all experiments involving test compounds, the Δ absorbance reading at 540 nm of the test compound alone (in the absence of Aβ), was always subtracted from the corresponding Δ absorbance reading at 540 nm of the test compound in the presence of Aβ. Using this modification of the method of Klunk et al., the use of a greater final concentration of Congo red, i.e. 60µM instead of 14µM, in the presence of fibrillar Aβ gave an overall absorbance at 540 nm that was always below 1.0 Absorbance Unit (AU), and well within the linear absorbance range.
The following polyhydroxylated aromatic containing compounds were tested using the above described Congo red-Aβ spectrophotometric assay to determine their effectiveness on disaggregation of pre-formed Aβ 1-40 amyloid fibrils: 1) gallic acid, 2) ethyl gallate, 3) quinic acid, 4) gallamide trihydrate, 5) ellagic acid, 6) propyl gallate, and 7) pyrogallol.

A further assay deals with Aβ 1-42 amyloid fibrils. The assay is described as follows: Thioflavin T fluorometry: disassembly/disruption of pre-formed Aβ 1-42 amyloid fibrils. Conditions: overnight (~18 hours) at 37°C, pH 7.0, mean of triplicate ± standard deviation. On the procedure: For the first study, 1 mg of Aβ 1-42 (Bachem Inc., Torrance, CA, USA) was dissolved in 1.0 ml of double distilled water (1 mg/ml solution). 25 µM of Aβ 1-42 was then incubated overnight (~18 hours) at 37°C, in the absence or presence of 100µg/ml of the following compounds: 1) EDTA (Sigma Chemical Company, St. Louis, MO, USA), 2) myricetin (Acros, Somerville, New Jersey, USA), 3) exifone (Acros) 4) pyrogallol (Sigma), 5) tannic acid (Acros), 6) pyrocatechol (Acros), 7) quercetin (Sigma), 8) ellagic acid (Acros), 9) 1,2,4-benzenetriol (Acros), 10) 5-hydroxydopamine (Acros), 11) gallamide hydrate (Acros), 12) gallic acid (Sigma), 13) ethyl gallate (Acros), 14) quinic acid (Acros), 15) propyl gallate (Sigma), and 16) phloroglucide (Acros), each in the presence of 150 mM Tris HCl, 10 mM NaCl (pH 7.0) with 0.02% sodium azide. In this study, the Aβ 1-42:compound weight ratio was 1:1.
For the second study, 1 mg of Aβ 1-42 (Bachem) was dissolved in 1.0 ml of double distilled water (1 mg/ml solution). 25 µM of Aβ 1-42 was then incubated overnight (~18 hours) at 37°C, in the absence or presence of 50µg/ml of the following compounds: 1) gallic acid, 2) ethyl gallate, 3) quinic acid, 4) gallamide trihydrate, 5) ellagic acid, 6) propyl gallate, and 7) pyrogallol, each in the presence of 150 mM Tris HCl, 10 mM NaCl (pH 7.0) with 0.02% sodium azide. In this study, the Aβ 1-42:compound weight ratio was 2:1.
Thioflavin T is known to bind to fibrillar amyloid proteins, and an increase in fluorescence correlates with an increase in amyloid fibril formation, whereas a decrease in fluorescence correlates with a decrease in amyloid fibrils due to disassembly and/or disruption. The Alzheimer's Aβ protein (1-42) when placed in solution, such as distilled water, tends to spontaneously form amyloid fibrils. Using this sensitive assay, any decreases or increases in fluorescence was previously shown to correlate with a decrease or increase in the amount of amyloid fibrils (see the documents cited above), allowing one to identify and quantitate the extent of potential inhibitors and/or enhancers of Alzheimer's Aβ 1-42 amyloid fibrils.
To assess the effects of each compound on potential disassembly/ disruption of preformed Aβ 1-42 fibrils, 50 µl of Aβ 1-42 with or without test compounds (described above) were added to 1.2 ml of 100µM Thioflavin T (Sigma) in 50mM NaH2PO4 (pH 6.0) for fluorometry readings. […] Fluorescence emission at 482 nm was measured on a Turner instrument-model 450 fluorometer at an excitation wavelength of 450 nm. For each determination, the fluorometer was calibrated by zeroing in the presence of the Thioflavin T reagent alone, and by setting the 50 ng/ml riboflavin (Sigma Chemical Co., St. Louis, MO) in the Thioflavin T reagent to 1800 fluorescence units. All fluorescence determinations were based on these references and any fluorescence given off by any of the compounds in the presence of the Thioflavin T reagent was always subtracted from all pertinent readings.
For all fibrillogenesis studies utilizing Thioflavin T fluorometry, as disclosed herein, comparisons of amyloid protein in the presence or absence of test compounds were based on paired Student's t tests with data shown as the mean of triplicate measurements ± standard deviation.

Assay [1] deals with T1, human amylin (Homo sapiens, UniProt P10997).
T1 construct: This amyloid protein involved consists of a 37 amino acid protein known as islet amyloid polypeptide or amylin; purchased Bachem
T1 sequence (P10997 34-70 limits assumed): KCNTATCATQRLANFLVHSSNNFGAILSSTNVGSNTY
The assay is described as follows: Congo red staining of amylin fibrils on gelatin-coated slides (polarized light). Conditions: result in words; amylin + compound after overnight incubation, compared with amylin alone. On the procedure: Following Thioflavin T fluorometry readings as described in Example 1, 5µl aliquots of amylin only, amylin + myricetin, amylin + exifone, and amylin + tannic acid were also taken, allowed to air dry overnight on gelatin-coated slides, and stained with Congo red as previously described (Castillo et al., Diabetes 47:612-620, 1998).

In assay [2] the target is T1, human amylin. The experiment in a line: Thioflavin T fluorometry: disassembly/disruption of islet amyloid (amylin) fibrils. The settings on record: 25 µM human amylin, 100µg/ml compound, amylin:compound weight ratio 1:1, overnight (~18 hours) at 37°C, pH 7.0; read-out: Fluorescence inhibition, %.

Usually inhibition stands for the share of the control response that was lost under treatment.

The structures appear in SMILES notation.

As to `O=C(O)c1cc(O)c(O)c(O)c1` [Gallic acid, gallic acid], the “Decrease in absorbance, %” value in the assay on Aβ 1-40 amyloid fibrils is listed as 52 ± 0.4%. Further, in the assay on Aβ 1-42 amyloid fibrils (Aβ 1-42:compound w/w ratio 2:1, 25 µM Aβ 1-42, 50µg/ml compound), the “Fluorescence inhibition, %, at the Aβ 1-42:compound w/w ratios given” value is 44 ± 1.7%.

Turning to `O=C(OC[C@H]1O[C@@H](OC(=O)c2cc(O)c(O)c(OC(=O)c3cc(O)c(O)c(O)c3)c2)[C@H](OC(=O)c2cc(O)c(O)c(OC(=O)c3cc(O)c(O)c(O)c3)c2)[C@@H](OC(=O)c2cc(O)c(O)c(OC(=O)c3cc(O)c(O)c(O)c3)c2)[C@@H]1OC(=O)c1cc(O)c(O)c(OC(=O)c2cc(O)c(O)c(O)c2)c1)c1cc(O)c(O)c(OC(=O)c2cc(O)c(O)c(O)c2)c1` [Tannic acid, tannic acid], the Congo red staining entry at human amylin [1] was “marked decrease in Congo red staining”. Moreover, the inhibition at 100 µg/mL on human amylin [2] stood at 83.8 ± 1.4%. Also, the “Fluorescence inhibition, %, at the Aβ 1-42:compound w/w ratios given” value with Aβ 1-42 amyloid fibrils (Aβ 1-42:compound w/w ratio 1:1, 25 µM Aβ 1-42, 100µg/ml compound) worked out at 77 ± 1.3%.

The record behind these values is EP1808169B1, “Polyhydroxylated aromatic compounds for the treatment of amyloidosis and alpha-synuclein fibril diseases” (priority 1999, dated 2001).
